A short description of data set [1]: cobalt ion chelation-mediated fluorescence recovery of calcein. It counts as physicochemical. The following applies: calcein 0.0625 µg/mL, calcein:cobalt dichloride 1:1 molar, normalized maximum fluorescence emission F/F0, excitation 490 nm. An excerpt:
It is well known that calcein fluorescence can be strongly quenched by cobalt ions at physiological pH, while removal of cobalt ion from the complex by EDTA-mediated chelation will lead to a significant increase in fluorescence intensity. Thus, the chelating capacity of the resultant conjugate can be determined by measuring the cobalt ion-chelating-mediated fluorescence recovery of calcein. […] The excitation wavelength of calcein was set at 490 and its emission was monitored in the range of 500–650 nm. The slits of excitation and emission were set at 5 and 3 nm, respectively. All background effects were subtracted. In addition, the same experiment was done in the presence of EDTA.

The target in data set [2] is T1, leucine aminopeptidase (Sus scrofa, UniProt P15145).
T1 sequence (P15145 1-963): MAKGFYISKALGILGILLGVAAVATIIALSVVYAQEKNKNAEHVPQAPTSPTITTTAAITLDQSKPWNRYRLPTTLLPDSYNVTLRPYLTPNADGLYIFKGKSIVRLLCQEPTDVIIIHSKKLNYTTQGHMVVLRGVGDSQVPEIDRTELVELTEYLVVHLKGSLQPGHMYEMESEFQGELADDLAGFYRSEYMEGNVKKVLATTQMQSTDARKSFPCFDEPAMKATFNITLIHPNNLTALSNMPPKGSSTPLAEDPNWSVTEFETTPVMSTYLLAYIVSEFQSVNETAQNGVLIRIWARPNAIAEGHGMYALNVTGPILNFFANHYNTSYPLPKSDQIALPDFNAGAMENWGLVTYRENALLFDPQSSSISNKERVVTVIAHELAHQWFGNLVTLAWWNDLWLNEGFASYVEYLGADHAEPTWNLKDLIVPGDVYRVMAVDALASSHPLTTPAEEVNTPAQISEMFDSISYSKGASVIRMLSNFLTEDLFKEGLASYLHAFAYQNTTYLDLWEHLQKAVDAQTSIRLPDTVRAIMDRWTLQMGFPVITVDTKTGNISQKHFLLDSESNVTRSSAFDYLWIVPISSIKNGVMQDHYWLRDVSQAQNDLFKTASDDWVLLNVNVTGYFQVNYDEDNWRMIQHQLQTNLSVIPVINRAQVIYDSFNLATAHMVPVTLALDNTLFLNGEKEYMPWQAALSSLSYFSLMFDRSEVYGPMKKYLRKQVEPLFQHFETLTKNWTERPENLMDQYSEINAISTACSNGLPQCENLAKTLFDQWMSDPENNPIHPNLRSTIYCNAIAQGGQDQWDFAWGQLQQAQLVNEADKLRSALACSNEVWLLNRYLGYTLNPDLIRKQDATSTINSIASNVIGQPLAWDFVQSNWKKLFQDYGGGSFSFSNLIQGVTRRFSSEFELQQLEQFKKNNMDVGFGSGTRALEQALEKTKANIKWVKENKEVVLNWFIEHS
The note with it: pH 7.
Description: (§1) After a 30-min enzymatic activation, the stock solutions of three thymopoietin oligopeptides were added into the above solution and made the final concentration of peptides at 0.1 mM. At specified time intervals after adding peptide, 100 µL aliquots were sampled and diluted with an equal volume of 1 M perchloric acid incubated in an ice bath to stop reaction. Meanwhile, a 100 mL aliquot of the abovementioned buffer was added to the incubation medium. […] All experiments were replicated at least three times.
(§2) Cldeg was determined by linear regression analysis from plots of ΣM versus the AUC at different time points [3, 11].

Data set [3] has as its target T1, leucine aminopeptidase. In words: leucine aminopeptidase-mediated degradation of thymopoietin oligopeptides (degradation kinetics and clearance). The note with it: peptide 0.1 mM, LAP 0.01 U/mL, Krebs phosphate buffer pH 7.0, 37 °C, RP-HPLC, Cldeg from ΣM versus AUC, at least three replicates.
Description: as §1, §2

SMILES strings stand for the structures. Read-outs that look alike come from different tables or passages of the source. Residues, ends and D or L forms follow the SMILES beside them.

This is an account of results in publication PMC6152209, “Synthesis, Characterization and In Vitro Evaluation of a Novel Glycol Chitosan-EDTA Conjugate to Inhibit Aminopeptidase-Mediated Degradation of Thymopoietin Oligopeptides” (Molecules : A Journal of Synthetic Chemistry and Natural …, 2017).

For the molecule `O=C(O)CN(CCN(CC(=O)O)CC(=O)O)CC(=O)O` [EDTA, ethylene diamine tetraacetic acid], the “EDTA group concentration above which the calcein fluorescence plateau was reached (almost complete removal of cobalt ions from the calcein/cobalt ion complex)” value in data set [1] is on record as “higher than 0.67 µM”.

For `N=C(N)NCCC[C@H](N)C(=O)N[C@@H](CCCCN)C(=O)N[C@@H](CC(=O)O)C(=O)O` [TP3, Thymotrinan] (H-Arg-Lys-Asp-OH), the “order of susceptibility to leucine aminopeptidase (degradation clearance)” value on leucine aminopeptidase [2] is reported as “TP4 > TP5 > TP3”.

As for `CC(C)[C@H](NC(=O)[C@H](CC(=O)O)NC(=O)[C@H](CCCCN)NC(=O)[C@@H](N)CCCNC(=N)N)C(=O)O` [TP4, thymocartin] (H-RKDV-OH), at leucine aminopeptidase [3], the “order of susceptibility to leucine aminopeptidase (degradation clearance)” value was “TP4 > TP5 > TP3”.
